Reference: PubChem BioAssay (NCI)
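Where inhibition never reached the appropriate level, the endpoint shown equals the highest concentration tested. Otherwise, values were interpolated linearly from a five-concentration, 48-hour dose response in 96-well plates. Here, GI50 denotes the concentration required for 50% inhibition of growth. TGI: total growth inhibition.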

Tests used:
Test in all cases: NCI tumour cell line growth inhibition, 48 h
[1] = tested on: HS 578T breast
[2] = tested on: A549 NSCLC
[3] = tested on: IGROV1 ovarian
[4] = tested on: HCT-15 colon
[5] = tested on: CAKI-1 renal
[6] = tested on: T-47D breast
[7] = tested on: BT-549 breast
[8] = tested on: NCI-H23 lung
[9] = tested on: 786-0 renal

Row | Compound | GI50 [1] [µM] | TGI [1] [µM] | GI50 [2] [µM] | TGI [2] [µM] | GI50 [3] [µM] | TGI [3] [µM] | GI50 [4] [µM] | TGI [4] [µM] | GI50 [5] [µM] | TGI [5] [µM] | GI50 [6] [µM] | TGI [6] [µM] | GI50 [7] [µM] | TGI [7] [µM] | GI50 [8] [µM] | TGI [8] [µM] | TGI [9] [µM]
1 | COc1ccc(C2=NC(c3ccc(Cl)cc3)C(c3ccc(Cl)cc3)N2C(=O)N2CCNC(=O)C2)c(OC(C)C)c1 (configuration not stated) | 2.65 | 6.45 | 2.22 | 5.61 | 1.76 | 3.29 | 1.91 | 3.86 | 1.8 | 3.22 | 3.67 | > 10 | 2.03 | 4.03 | 1.83 | 3.45 | 
2 | N#Cc1nc(/C=C/c2cccnc2)oc1N |  | > 100 |  | > 100 |  | > 100 |  | > 100 |  | > 100 |  | > 100 |  |  |  | > 100 | > 100
3 | CC(C)C(NC(=O)C(Cc1ccccc1)NC(=O)[C@H]1CCC[C@H]1NC(=O)C(Cc1ccc(OC(C)(C)C)cc1)NC(=O)OC(C)(C)C)C(N)=O (some centres not stated) |  |  |  | 45.5 |  | > 100 |  | > 100 |  | > 100 |  | 46.9 |  |  |  | 35.7 | > 100
4 | O=C1c2cc([N+](=O)[O-])sc2C(=O)c2c([N+](=O)[O-])csc21 |  |  |  | 3.56 |  | 1.4 |  | 4.41 |  | 2.48 |  | 4.09 |  | 1.93 |  | 2.05 | 1.66
5 | C=C(C)[C@@H]1CC[C@]2(C(=O)NC(C)=O)CC[C@]3(C)[C@H](CC[C@@H]4[C@@]5(C)CCCNC(C)(C)[C@@H]5CC[C@]43C)[C@@H]12 |  |  | 1.61 | 3.33 | 1.69 | 3.15 | 1.52 | 2.97 | 1.64 | 3.1 |  |  | 1.68 | 3.28 | 1.76 | 3.51 | 
6 | CC/C(=C\c1ccc(OC)cc1)c1ccc(OC)cc1 |  | > 100 |  | > 100 |  | > 100 |  | > 100 |  | > 100 |  |  |  | > 100 |  | > 100 | > 100
7 | CC(C)(C)C1=C(Br)C(OC(=O)C(F)(F)F)(C(C)(C)C)OP1(=O)c1ccccc1 (configuration not stated) |  | 65.5 |  | > 100 |  | > 100 |  | > 100 |  | 4.97 |  | > 100 |  |  |  | > 100 | > 100
8 | Cc1ccc(S(=NS(=O)(=O)c2ccc(C)cc2)c2ccc(C)cc2)cc1 |  |  |  | > 100 |  |  |  | > 100 |  |  |  | > 100 |  | > 100 |  | > 100 | > 100
9 | CC(=O)OCC1OC(n2c(-c3ccccc3)c(N=Nc3ccc(C)cc3)c(C)c(C#N)c2=S)C(OC(C)=O)C(OC(C)=O)C1OC(C)=O (configuration not stated) |  |  |  | 47 |  |  |  | 86.6 |  | 64.5 |  | > 100 |  | 19 |  | 42.1 | 12.5
10 | Cc1ccccc1NC(=O)Cc1csc(N=Nc2c(O)[nH]c3ccccc23)n1 |  | 84.9 |  | > 100 |  | > 100 |  | > 100 |  | 37.6 |  |  |  |  |  | > 100 | > 100
11 | COc1ccc(-c2n/c(=C\c3c(O)[nH]c4ccccc34)cc3c2=Nc2ccccc2-3)cc1 | 1.85 | 5.75 | 1.79 | 4.31 | 15.3 | 47.7 | 1.64 | 4.13 | 14.5 | 36.7 | 2.22 | 9.43 | 1.45 | 2.96 | 1.55 | 3.09 | 
12 | CCCCCCCCCCCCO[P+](=O)OCCCCCCCCCCCC |  | > 100 |  | > 100 |  | > 100 |  | > 100 |  |  |  | > 100 |  | > 100 |  | > 100 | > 100
13 | Cc1csc(-n2c(C)nc3cc(Cl)ccc3c2=O)n1 |  |  |  | > 100 |  | > 100 |  | > 100 |  | > 100 |  |  |  | > 100 |  | > 100 | > 100
14 | O=C(O)c1ccc(N/C(=C(/C(Cl)=C(Cl)Cl)[N+](=O)[O-])n2nnc3ccccc32)cc1 |  | > 100 |  | > 100 |  |  |  | > 100 |  | > 100 |  | > 100 |  | > 100 |  | > 100 | > 100
15 | CC1(C)CC(=O)C2=C(C1)OC1(CC2c2ccc(Cl)cc2)CC(c2ccc(Cl)cc2)C2=C(CC(C)(C)CC2=O)O1 (configuration not stated) |  | 36.1 |  | 30.9 |  | 33.4 |  | > 100 |  | 52.3 |  |  |  | 50.6 |  | 34.9 | 35.9
16 | CCOC(=O)C(C(=O)COC(C)(C)C)[C@@H]1C=C[C@H](OC(C)=O)C1 (some centres not stated) |  | > 100 |  | > 100 |  |  |  | > 100 |  | > 100 |  | > 100 |  | > 100 |  | > 100 | > 100
17 | CC(C)c1ccc(/C=C2\CSCC3=C2N=C2SCC(=O)N2C3c2ccc(C(C)C)cc2)cc1 (configuration not stated) |  | > 100 |  | > 100 |  | > 100 |  | > 100 |  | > 100 |  | > 100 |  |  |  | > 100 | > 100
18 | C=CC[C@H](N=C(SC)SC)C(=O)N1C(=O)N(C)[C@@H](C)[C@H]1c1ccccc1 |  | > 100 |  | > 100 |  |  |  | > 100 |  | > 100 |  | > 100 |  | > 100 |  | > 100 | > 100
19 | N#Cc1nc(-c2cccc(-c3nc(C#N)c(N)o3)n2)oc1N |  | > 100 |  | > 100 |  | > 100 |  | > 100 |  | > 100 |  | > 100 |  |  |  | > 100 | > 100
20 | CCOc1cc2c(cc1O)C(N)C[C@@H]1[C@@H]2CC[C@]2(C)[C@@H](O)CC[C@@H]12 (some centres not stated) |  | > 100 |  |  |  | > 100 |  | > 100 |  | > 100 |  | > 100 |  | > 100 |  | > 100 | > 100
21 | CCNC(=S)N/N=C(\C)c1cccc(C)n1 |  | > 100 |  | > 100 |  | > 100 |  | > 100 |  |  |  | > 100 |  | > 100 |  | > 100 | > 100
22 | C=C(C)[C@@H]1CC[C@]2(CO)CC[C@]3(C)[C@H](CC[C@@H]4[C@@]5(C)CC[C@H](NCO)C(C)(C)[C@@H]5CC[C@]43C)[C@@H]12 |  |  | 0.885 | 1.73 | 0.899 | 1.68 |  |  | 0.882 | 1.59 |  |  | 0.792 | 1.53 | 0.869 | 1.67 | 
